Consider one compound from ChEMBL document CHEMBL1139760, “Studies on a series of potent, orally bioavailable, 5-HT(1) receptor ligands” (Bioorg Med Chem Lett, 2007).

Data set [1] deals with T1, Muscarinic acetylcholine receptor M1 (Homo sapiens) (UniProt P11229).
T1 sequence (whole entry): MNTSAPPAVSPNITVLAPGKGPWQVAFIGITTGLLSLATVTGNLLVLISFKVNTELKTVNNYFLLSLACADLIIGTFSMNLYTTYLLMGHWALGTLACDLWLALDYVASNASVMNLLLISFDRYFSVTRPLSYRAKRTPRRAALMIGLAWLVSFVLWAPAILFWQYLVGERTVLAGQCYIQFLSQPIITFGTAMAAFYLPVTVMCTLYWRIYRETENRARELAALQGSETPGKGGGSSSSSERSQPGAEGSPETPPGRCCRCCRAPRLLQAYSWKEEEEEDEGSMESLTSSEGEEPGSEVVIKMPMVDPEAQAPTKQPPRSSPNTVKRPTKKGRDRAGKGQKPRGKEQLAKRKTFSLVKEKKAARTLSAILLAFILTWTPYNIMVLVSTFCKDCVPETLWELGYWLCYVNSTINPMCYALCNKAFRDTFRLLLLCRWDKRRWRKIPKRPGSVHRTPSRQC
Description: Inhibition of muscarinic M1 receptor at 1 uM.

The target in data set [2] is Histamine H2 receptor (Homo sapiens) (UniProt P25021). The data set can be described thus: Inhibition of histamine H2 receptor at 1 uM.
Histamine H2 receptor (Homo sapiens), sequence (P25021 whole entry): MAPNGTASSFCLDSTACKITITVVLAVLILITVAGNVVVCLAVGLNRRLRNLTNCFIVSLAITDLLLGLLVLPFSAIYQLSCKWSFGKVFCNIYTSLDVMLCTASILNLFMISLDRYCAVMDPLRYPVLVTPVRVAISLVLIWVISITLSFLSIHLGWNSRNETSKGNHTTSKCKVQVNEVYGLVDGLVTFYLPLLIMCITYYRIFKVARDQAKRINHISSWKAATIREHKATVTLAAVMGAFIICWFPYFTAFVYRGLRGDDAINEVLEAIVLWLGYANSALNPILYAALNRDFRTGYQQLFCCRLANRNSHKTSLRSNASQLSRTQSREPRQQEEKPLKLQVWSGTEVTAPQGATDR
Data set [3] addresses Sodium-dependent serotonin transporter (Rattus norvegicus, UniProt P31652).
Description: Inhibition of [3H]5-HT uptake at SERT in rat cortical synaptosomes
Data set [4] concerns the target T2, 5-hydroxytryptamine receptor 1A (Homo sapiens) (UniProt P08908).
T2 sequence (whole entry): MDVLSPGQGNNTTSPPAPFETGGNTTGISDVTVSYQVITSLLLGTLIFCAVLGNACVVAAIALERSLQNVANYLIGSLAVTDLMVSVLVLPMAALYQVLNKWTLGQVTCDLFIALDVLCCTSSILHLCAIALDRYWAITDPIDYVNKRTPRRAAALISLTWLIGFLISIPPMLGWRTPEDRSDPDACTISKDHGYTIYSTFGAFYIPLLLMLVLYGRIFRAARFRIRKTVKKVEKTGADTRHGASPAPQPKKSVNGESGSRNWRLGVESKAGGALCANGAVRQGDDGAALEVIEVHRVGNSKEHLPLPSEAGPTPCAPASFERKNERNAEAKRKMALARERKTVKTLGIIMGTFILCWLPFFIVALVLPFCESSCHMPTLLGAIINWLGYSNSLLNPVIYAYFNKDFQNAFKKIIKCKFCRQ
The data set can be described thus: Intrinsic activity at human recombinant 5HT1A receptor expressed in CHO cells by [35S]GTP-gamma-S binding assay relative to 5-hydroxytryptamine. Format: functional, cell-based. Background: GTPγS is a poorly hydrolysed GTP analogue; its binding reports G protein activation.

The subject of data set [5] is Liver microsomes. Description: Metabolic stability assessed as intrinsic clearance in human liver microsomes. Format: ADME, Microsome.
Data set [6] is described as follows: Clearance in rat blood at 1 mg/kg, iv. It is filed as ADME, organism-based. Also on record: dose 1 mg/kg, route intravenous.
Data set [7] is described as follows: Half life in rat at 1 mg/kg, iv. Format: ADME, organism-based. More on the design: dose 1 mg/kg, route intravenous. The note with it: in vivo.
The nature of data set [8]: Oral bioavailability in rat at 3 mg/kg. It is filed as ADME, organism-based. Particulars: in vivo.
The target of data set [9] is T3, 5-hydroxytryptamine receptor 1B (Homo sapiens, UniProt P28222). Description: Intrinsic activity at human recombinant 5HT1B receptor expressed in CHO cells by [35S]GTP-gamma-S binding assay relative to 5-hydroxytryptamine. It is filed as functional, cell-based.
T3 sequence (P28222 whole entry): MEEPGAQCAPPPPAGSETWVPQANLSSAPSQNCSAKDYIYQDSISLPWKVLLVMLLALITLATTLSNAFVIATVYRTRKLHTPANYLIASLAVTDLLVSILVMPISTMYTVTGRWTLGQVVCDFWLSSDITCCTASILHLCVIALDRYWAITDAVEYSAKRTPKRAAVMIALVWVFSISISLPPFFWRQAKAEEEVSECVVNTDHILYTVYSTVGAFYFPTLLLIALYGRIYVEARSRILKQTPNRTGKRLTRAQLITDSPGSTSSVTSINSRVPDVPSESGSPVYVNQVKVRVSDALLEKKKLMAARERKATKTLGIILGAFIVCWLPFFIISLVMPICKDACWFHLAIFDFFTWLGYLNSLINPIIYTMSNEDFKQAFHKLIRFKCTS
Data set [10] has as its target T4, 5-hydroxytryptamine receptor 1A (Homo sapiens, UniProt P08908).
T4 sequence (P08908 whole entry): T2 sequence (whole entry)
Description: Displacement of [3H]-WAY100635 from human recombinant 5HT1A receptor expressed in CHO cells. Background: Loss of bound radioactivity is the signal in a displacement assay; it reports binding, not function.

Data set [11] has as its system Liver microsomes. Description: Metabolic stability assessed as intrinsic clearance in rat liver microsomes. Format: ADME, Microsome.
The nature of data set [12]: Ratio of drug level in brain to blood in rat at 3 mg/kg, po. More on the design: dose 3 mg/kg, route oral. Format: ADME, organism-based.
The target of data set [13] is T5, Alpha-1A adrenergic receptor (Homo sapiens) (UniProt P35348).
T5 sequence (whole entry): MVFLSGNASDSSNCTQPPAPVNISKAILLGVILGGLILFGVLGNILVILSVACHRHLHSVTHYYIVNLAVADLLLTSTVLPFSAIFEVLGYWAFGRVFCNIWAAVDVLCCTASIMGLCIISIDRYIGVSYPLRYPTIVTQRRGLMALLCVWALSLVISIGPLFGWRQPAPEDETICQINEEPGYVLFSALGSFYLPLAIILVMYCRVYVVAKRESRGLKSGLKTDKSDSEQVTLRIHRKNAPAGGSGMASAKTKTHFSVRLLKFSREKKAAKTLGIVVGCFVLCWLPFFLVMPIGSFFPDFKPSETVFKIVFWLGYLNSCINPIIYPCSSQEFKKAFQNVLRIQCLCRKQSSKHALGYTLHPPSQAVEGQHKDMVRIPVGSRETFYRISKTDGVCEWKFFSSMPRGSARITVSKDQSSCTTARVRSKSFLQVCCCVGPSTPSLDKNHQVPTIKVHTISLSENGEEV
Description: Inhibition of adrenergic alpha1 receptor at 1 uM.

Data set [14] can be described thus: Volume of distribution at steady state in rat at 1 mg/kg, iv. It is filed as ADME, organism-based. More on the design: dose 1 mg/kg, route intravenous. Particulars: in vivo, read-out: Vdss.
The target in data set [15] is T4, 5-hydroxytryptamine receptor 1A. The data set can be described thus: Displacement of [3H]WAY 100635 from human recombinant 5HT1A receptor expressed in CHO cells. Format: cell-based.
Data set [16] has as its target 5-hydroxytryptamine receptor 1D (Homo sapiens, UniProt P28221). The data set can be described thus: Displacement of [3H]5-HT from human recombinant 5HT1D receptor expressed in CHO cells. Format: cell-based.
Data set [17] concerns the target T3, 5-hydroxytryptamine receptor 1B. The data set can be described thus: Displacement of [3H]5-HT from human recombinant 5HT1B receptor expressed in CHO cells. It is filed as cell-based.

Structures are written as SMILES. Calls of active or inactive are those of the source. The rule behind the calls is not given here.

Sodium-dependent serotonin transporter, sequence (P31652 whole entry): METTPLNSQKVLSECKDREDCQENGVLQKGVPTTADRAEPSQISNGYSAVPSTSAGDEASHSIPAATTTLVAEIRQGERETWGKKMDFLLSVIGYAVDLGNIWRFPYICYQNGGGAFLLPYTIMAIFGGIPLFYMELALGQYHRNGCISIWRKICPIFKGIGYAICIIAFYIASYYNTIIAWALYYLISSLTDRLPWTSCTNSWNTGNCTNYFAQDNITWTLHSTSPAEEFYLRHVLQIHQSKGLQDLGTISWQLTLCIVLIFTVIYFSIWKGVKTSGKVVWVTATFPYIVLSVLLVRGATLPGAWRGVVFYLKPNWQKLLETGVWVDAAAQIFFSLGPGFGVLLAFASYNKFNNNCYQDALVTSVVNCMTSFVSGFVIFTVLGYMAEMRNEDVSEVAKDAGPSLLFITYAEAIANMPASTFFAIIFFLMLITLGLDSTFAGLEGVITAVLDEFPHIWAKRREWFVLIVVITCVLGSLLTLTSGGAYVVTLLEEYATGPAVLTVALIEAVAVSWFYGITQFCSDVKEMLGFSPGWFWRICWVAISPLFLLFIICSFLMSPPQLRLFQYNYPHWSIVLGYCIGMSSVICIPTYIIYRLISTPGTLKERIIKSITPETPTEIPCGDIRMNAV
5-hydroxytryptamine receptor 1D, sequence (P28221 whole entry): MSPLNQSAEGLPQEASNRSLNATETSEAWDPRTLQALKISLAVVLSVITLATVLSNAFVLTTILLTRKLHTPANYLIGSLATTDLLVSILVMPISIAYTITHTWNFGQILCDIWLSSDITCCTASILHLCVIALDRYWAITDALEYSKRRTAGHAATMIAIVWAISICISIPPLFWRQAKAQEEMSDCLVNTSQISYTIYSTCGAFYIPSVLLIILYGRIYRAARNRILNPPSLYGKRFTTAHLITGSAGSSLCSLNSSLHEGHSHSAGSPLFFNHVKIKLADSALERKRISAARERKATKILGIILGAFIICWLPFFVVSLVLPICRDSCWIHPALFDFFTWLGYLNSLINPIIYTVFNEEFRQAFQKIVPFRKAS

Turning to `Cc1ccc2c(OCCN3CCC(Cc4ccc5c(c4)N(C)C(=O)CO5)CC3)cccc2n1`, the outcome in data set [1], in [2] and in [13] was Active. Moreover, the Ki (as a rule, the equilibrium dissociation constant of an inhibitor or competing ligand from its target) was 39.8 nM in [3]; 0.398 nM in [10]; 6.31 nM in data set [15]; 2.51 nM in data set [16]; 6.31 nM in data set [17]. Further, the Intrinsic activity in data set [4] was found to be 0; in [9], 0.5. Moreover, the CL in data set [5] was 0.9 mL/min/g; in data set [11] it was 4.9 mL/min/g. In addition, the clearance (in general, the volume of plasma or blood freed of the substance per unit of time) in data set [6] came to 57 mL/min/kg. The half-life (usually how long it takes for the measured level to halve) in [7] was 78 min. For the same compound, in data set [8], the bioavailability – broadly, the share of a dose that reaches the circulation, judged against a reference dose that is usually intravenous – came out at 35%. Moreover, in data set [12], the Kp (usually tissue or fluid exposure divided by exposure in the circulation) came to 1.3. The Vd in data set [14] amounted to 4.2 L/kg.
